The results in this text go back to ChEMBL document CHEMBL1148733, “Novel N7- and N1-substituted cGMP derivatives are potent activators of cyclic nucleotide-gated channels” (J Med Chem, 2007).

For one assay, the system named is HEK293. Conditions: Homo sapiens.
In a further assay the test system is Oocyte. Put plainly: Activation of retinal rod […] CNG A1B1 channel expressed in Xenopus oocytes assessed as effect on half maximal current. The assay is classed as cell-based. The settings on record: Homo sapiens.

Molecules are shown by their SMILES.

Description for HEK293: Activation of olfactory CNG A2A41b channel expressed in HEK293 cells assessed as effect on half maximal current

`CO[C@@H]1[C@@H]2OP(=O)(O)OC[C@H]2O[C@H]1n1c(Sc2ccc(Cl)cc2)nc2c(N)ncnc21` returned a K1/2 in the assay on HEK293 of 22 µM.

Regarding `Nc1nc2c(nc(SCCS(=O)(=O)c3ccccc3)n2[C@@H]2O[C@@H]3COP(=O)(O)O[C@H]3[C@H]2O)c(=O)[nH]1`, in the assay with HEK293, the K1/2 is 0.21 µM.

`CCCC(=O)O[C@@H]1[C@@H]2OP(=O)(O)OC[C@H]2O[C@H]1n1cnc2c(=O)[nH]c(N)nc21` returned a K1/2 with HEK293 of 88 µM.

Take `Nc1nc2c(nc(Sc3ccc(Cl)cc3)n2[C@@H]2O[C@@H]3COP(=O)(O)O[C@H]3[C@H]2O)c(=O)n1CCS(=O)(=O)c1ccccc1`: the K1/2 in the assay on Oocyte amounted to 12 µM; in the assay with HEK293, 0.38 µM.

`Nc1nc2c(c(=O)[nH]1)[n+]1c(n2[C@@H]2O[C@@H]3COP(=O)(O)O[C@H]3[C@H]2O)SCCC1` returned a K1/2 in the assay on HEK293 of 10 µM.

In the case of `Nc1nc2c(nc(Sc3ccc(Cl)cc3)n2[C@@H]2O[C@@H]3COP(=O)(O)O[C@H]3[C@H]2O)c(=O)[nH]1`, the figures for the K1/2 in the assay on Oocyte and in the assay on HEK293 were 1 µM and 0.073 µM, respectively.

Turning to `CO[C@@H]1[C@@H]2OP(=O)(O)OC[C@H]2O[C@H]1n1cnc2c(=O)n(C)c(N)nc21`, in the assay with HEK293, the K1/2 came out at 290 µM.

`Nc1nc2c([nH]c(=S)n2[C@@H]2O[C@@H]3COP(=O)(O)O[C@H]3[C@H]2O)c(=O)[nH]1`: the K1/2 with Oocyte turned out to be 14 µM; with HEK293, 0.18 µM.

As to `Nc1nc2c(ncn2[C@@H]2O[C@@H]3COP(=O)(O)O[C@H]3[C@H]2O)c(=O)[nH]1`, the K1/2 with Oocyte amounted to 41 µM; in the assay with HEK293 it was 1.1 µM.

`CS(=O)(=O)CCn1c(=S)n([C@@H]2O[C@@H]3COP(=O)(O)O[C@H]3[C@H]2O)c2nc(N)[nH]c(=O)c21` came in with a K1/2 in the assay on HEK293 of 0.11 µM.

Take `Nc1nc2c(c(=O)[nH]1)n(CCS(=O)(=O)c1ccccc1)c(=S)n2[C@@H]1O[C@@H]2COP(=O)(O)O[C@H]2[C@H]1O`: the K1/2 with Oocyte is 4.1 µM; with HEK293, 0.082 µM.

As to `Nc1ncnc2c1nc(Sc1ccc(Cl)cc1)n2[C@@H]1O[C@@H]2COP(=O)(O)O[C@H]2[C@H]1O`, the K1/2 in the assay with HEK293 was found to be 0.55 µM.

`CO[C@@H]1[C@@H]2OP(=O)(O)OC[C@H]2O[C@H]1n1cnc2c(=O)[nH]c(N)nc21`: the K1/2 with HEK293 amounted to 35 µM.

Turning to `CS(=O)(=O)CCSc1nc2c(=O)[nH]c(N)nc2n1[C@@H]1O[C@@H]2COP(=O)(O)O[C@H]2[C@H]1O`, the K1/2 in the assay with HEK293 is 0.37 µM.

In the assay with HEK293, `CCCC(=O)Nc1nc2c(ncn2[C@@H]2O[C@@H]3COP(=O)(O)O[C@H]3[C@H]2O)c(=O)[nH]1` yielded a K1/2 of 22 µM.
